From PubChem BioAssay (NCI)
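Where inhibition never reached the appropriate level, the endpoint shown equals the highest concentration tested. Otherwise, values were interpolated linearly from a five-concentration, 48-hour dose response in 96-well plates. At the TGI there is no net growth.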

Assays:
Experiment in all cases: NCI-60 cell line screen, 48 h
CCRF-CEM leukemia = system: CCRF-CEM leukemia
MALME-3M melanoma = system: MALME-3M melanoma
SK-OV-3 ovarian = system: SK-OV-3 ovarian
UO-31 renal = system: UO-31 renal
U251 CNS = system: U251 CNS
MCF7 breast = system: MCF7 breast
786-0 renal = system: 786-0 renal
SW-620 colon = system: SW-620 colon
MDA-MB-231 breast = system: MDA-MB-231 breast
SR leukemia = system: SR leukemia
MOLT-4 leukemia = system: MOLT-4 leukemia
SF-295 CNS = system: SF-295 CNS
TK-10 renal = system: TK-10 renal
NCI-H23 lung = system: NCI-H23 lung
IGROV1 ovarian = system: IGROV1 ovarian
SN12C renal = system: SN12C renal
KM12 colon = system: KM12 colon
OVCAR-5 ovarian = system: OVCAR-5 ovarian
SNB-75 CNS = system: SNB-75 CNS
NCI-H460 lung = system: NCI-H460 lung
A549 NSCLC = system: A549 NSCLC
HOP-62 NSCLC = system: HOP-62 NSCLC
UACC-257 melanoma = system: UACC-257 melanoma
HOP-92 NSCLC = system: HOP-92 NSCLC
NCI/ADR-RES ovarian = system: NCI/ADR-RES ovarian
ACHN renal = system: ACHN renal
RPMI-8226 leukemia = system: RPMI-8226 leukemia
PC-3 prostate = system: PC-3 prostate
UACC-62 melanoma = system: UACC-62 melanoma
M14 melanoma = system: M14 melanoma
EKVX NSCLC = system: EKVX NSCLC
HS 578T breast = system: HS 578T breast
HL-60(TB) leukemia = system: HL-60(TB) leukemia
COLO 205 colon = system: COLO 205 colon
NCI-H522 lung = system: NCI-H522 lung
HCT-15 colon = system: HCT-15 colon
NCI-H226 lung = system: NCI-H226 lung
LOX IMVI melanoma = system: LOX IMVI melanoma
OVCAR-4 ovarian = system: OVCAR-4 ovarian
DU-145 prostate = system: DU-145 prostate
SK-MEL-28 melanoma = system: SK-MEL-28 melanoma
MDA-MB-435 = system: MDA-MB-435
OVCAR-8 ovarian = system: OVCAR-8 ovarian
SK-MEL-2 melanoma = system: SK-MEL-2 melanoma
SNB-19 CNS = system: SNB-19 CNS
HCT-116 colon = system: HCT-116 colon
SF-539 CNS = system: SF-539 CNS
MDA-N = system: MDA-N
HT29 colon = system: HT29 colon
SF-268 CNS = system: SF-268 CNS
CAKI-1 renal = system: CAKI-1 renal
K-562 leukemia = system: K-562 leukemia
HCC-2998 colon = system: HCC-2998 colon
OVCAR-3 ovarian = system: OVCAR-3 ovarian
BT-549 breast = system: BT-549 breast
SK-MEL-5 melanoma = system: SK-MEL-5 melanoma
A498 renal = system: A498 renal
RXF 393 renal = system: RXF 393 renal

Measured: TGI

COc1ccc(NCC(=O)Nn2c(C)nc3ccc(S(=O)(=O)Nc4ccc(OC)cc4)cc3c2=O)cc1
not listed: SK-MEL-5 melanoma | A498 renal | RXF 393 renal
> 100 µM: all other assays above

NC1CNC(=O)c2cscc21 (centres undefined)
not listed: SK-OV-3 ovarian | MDA-MB-231 breast | TK-10 renal | SNB-75 CNS | HOP-62 NSCLC | NCI-H226 lung | OVCAR-8 ovarian | SK-MEL-2 melanoma | SF-539 CNS
> 100 µM: all other assays above
